Our source for the Ki values is BindingDB's records for PubMed 8474008 (Virginia Commonwealth University, 1993).

Structures are written as SMILES. Where “and” joins values, the source holds several entries; their conditions need not be identical. Identical values can stand only once. A value given as a limit tells only on which side of the number the result lay.

The Ki is a measure of affinity in units of concentration, obtained from inhibition or displacement. Low values mean higher affinity, high ones lower affinity.

Cannabinoid receptor 1, sequence (P20272 whole entry): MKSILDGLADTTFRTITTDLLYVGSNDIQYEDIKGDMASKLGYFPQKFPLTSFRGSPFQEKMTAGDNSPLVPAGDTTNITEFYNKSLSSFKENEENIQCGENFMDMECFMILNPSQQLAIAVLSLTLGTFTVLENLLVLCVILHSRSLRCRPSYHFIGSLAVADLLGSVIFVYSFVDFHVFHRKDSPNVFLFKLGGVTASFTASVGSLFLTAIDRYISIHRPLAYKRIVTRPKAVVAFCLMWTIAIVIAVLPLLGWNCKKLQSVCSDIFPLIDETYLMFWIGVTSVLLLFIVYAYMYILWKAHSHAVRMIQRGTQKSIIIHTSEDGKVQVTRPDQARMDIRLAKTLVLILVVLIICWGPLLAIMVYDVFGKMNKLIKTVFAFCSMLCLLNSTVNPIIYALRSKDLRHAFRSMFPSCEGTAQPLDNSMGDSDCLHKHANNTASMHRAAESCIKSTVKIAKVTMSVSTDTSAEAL

The assay has as its target Cannabinoid receptor 1 (Rattus norvegicus, UniProt P20272).
`CCCCCC(C)(C)c1ccc([C@H]2CCC[C@@H](O)C2)c(O)c1` [Bicyclic analogs V] returned an inhibitory constant (Ki) of 126 nM.

As to `C=C(C)C1CCC(C)=CC1c1c(O)cc(O)cc1CCCCC` (stereo unspecified) [NSC_3060519], the Ki was > 10000 nM.

For the compound `CCCCC(C)(C)c1ccc([C@H]2CCC[C@@H](O)C2)c(O)c1` [Bicyclic analogs IV], the affinity, expressed as Ki, was 9.54 nM.

`CCCCC[C@@H](C)[C@H](C)c1cc(O)c2c(c1)OC(C)(C)[C@@H]1CC=C(C)C[C@@H]21` returned a Ki of 1.59 nM.

Turning to `CCCCCc1cc(OCCCCN)c2c(c1)OC(C)(C)[C@@H]1CCC(C)=C[C@@H]21` [THC, 1-O-(4-Aminobutyl)], the inhibitory constant (Ki) is > 10000 nM.

As to `CCCCCc1cc(OC)c2c(c1)OC(C)(C)[C@@H]1CCC(C)=C[C@@H]21` [THC, 1-O-methyl-delta 9], the inhibitory constant (Ki) was > 10000 nM.

In turn, `CC1=C[C@H]2c3c(O)cc(CCCCCO)cc3OC(C)(C)[C@@H]2CC1` [THC, 5'-OH] returned a Ki of 87.6 nM.

As for `CCCCCc1cc(OC(N)=O)c2c(c1)OC(C)(C)[C@@H]1CCC(C)=C[C@@H]21` [THC, 1-O-Carbamoyl], the Ki was > 10000 nM.

In turn, `CCCCCCCCCCC(C)(C)c1ccc([C@H]2CCC[C@@H](O)C2)c(O)c1` [Bicyclic analogs X] yielded a Ki of 381 nM.

The compound `CCCCCc1cc(O)c2c(c1)OC(C)(C)[C@@H]1C[C@@H](O)C(C)=C[C@@H]21` [THC, 8 beta-OH] yielded a Ki of 820 nM.

As for `CCCCCc1cc(OCCCN)c2c(c1)OC(C)(C)[C@@H]1CCC(C)=C[C@@H]21` [THC, 1-O-(3-Aminopropyl)], the Ki is > 10000 nM.

As for `CC1=C[C@H]2c3c(O)cc(CCCCCBr)cc3OC(C)(C)[C@@H]2CC1` [THC, 5'-Br], the inhibitory constant (Ki) came to 7.63 nM.

Turning to `C=C1CC[C@@H]2[C@@H](C1)c1c(OC)cc(CCC(CC)CCC)cc1OC2(C)C` (stereo partly specified) [THC, 1-O-Methyl-3-(norpentyl)-3-propyl], the Ki is > 10000 nM.

For `CCCCCCC(C)(C)c1cc(OCc2ccc(-c3ccccc3)cc2)c2c(c1)OC(C)(C)[C@@H]1CCC(CO)=C[C@@H]21` [THC, 1-O-biphenylmethyl-delta 8], the inhibition constant Ki was > 10000 nM.

`CCCCCc1cc(OCCCCCCN)c2c(c1)OC(C)(C)[C@@H]1CCC(C)=C[C@@H]21` [THC, 1-O-(6-Aminohexyl)] had a Ki of 1730 nM.

`CCCCCCCCC(C)(C)c1ccc([C@H]2CCC[C@@H](O)C2)c(O)c1` [Bicyclic analogs VIII] displayed a Ki of 28.5 nM.

In the case of `CC1=C[C@H]2c3c(O)cc(CCCCC(F)(F)F)cc3OC(C)(C)[C@@H]2CC1` [THC, 5'-F3], the affinity corresponds to a Ki of 19.9 nM.

For the compound `CC1(C)Oc2cc(CCCCC[N+](C)(C)C)cc(O)c2[C@@H]2C=C(CO)CC[C@H]21` [THC, 11-OH-5'-TMA], the Ki is 2110 nM.

Consider `OCCC[C@@H]1CC[C@@H](O)C[C@H]1c1ccccc1O` [Bicyclic analogs XIII], for which the inhibitory constant (Ki) is > 10000 nM.

As to `CCCC(C)(C)c1ccc([C@H]2CCC[C@@H](O)C2)c(O)c1` [Bicyclic analogs III], the affinity corresponds to a Ki of 3760 nM.

In the case of `CCCCCc1cc(O)c2c(c1)OC(C)(C)[C@@H]1CCC(C(=O)O)=C[C@@H]21` [THC, 9-Nor-9-carboxy-delta 9], the Ki is > 10000 nM.

Consider `CCCCCCC(C)(C)c1cc(O)c2c(c1)OC(C)(C)[C@@H]1CCC(=O)C[C@@H]21` [(6aR,10aR)-3-(1,1-Dimethyl-heptyl)-1-hydroxy-6,6-dimethyl-6,6a,7,8,10,10a-hexahydro-benzo[c]chromen-9-one], for which the affinity corresponds to a Ki of 22.3 nM.

For the compound `CCCCCC(C)C(C)c1cc(O)c2c(c1)OC(C)(C)C1=C2CC(C)CC1` (stereo unspecified) [DMHP, 1', 2'], the inhibition constant (Ki) was 1.56 nM.

On to `CCCCCCC(C)(C)c1cc(O)c2c(c1)OC(C)(C)[C@H]1CCC(CO)=C[C@H]21` [THC-DMH, (-)-11-OH], for which affinity was put at a Ki of 0.72 nM.

As to `CCCCCc1cc(O)c2c(c1)OC(C)(C)[C@@H]1CCC(C)=C(CO)[C@@H]21` [THC, O, 10-Methano], the inhibitory constant (Ki) is > 10000 nM.

Compound `CCCCCCC(C)(C)c1ccc([C@H]2CCC[C@@H](O)C2)c(O)c1` [CP-47,497] had an inhibition constant Ki of 735 nM.

`CCCCCCCC(C)(C)c1ccc([C@H]2CCC[C@@H](O)C2)c(O)c1` [Bicyclic analogs VII] showed a Ki of 4.73 nM.

`CCCCCc1cc(O)c2c(c1)OC(C)(C)[C@@H]1CCC(CO)=C[C@@H]21` [THC, 11-OH-delta 9] registered a Ki of 38.4 nM.

Take `CCCCCc1cc(OC)c2c(c1)OC(C)(C)[C@@H]1CCC(CF)=C[C@@H]21` [THC, 11-F]: the affinity corresponds to a Ki of 107 nM.

Regarding `C=C1CC[C@@H]2[C@@H](C1)c1c(OC)cc(CCCCC)cc1OC2(C)C` [THC, 1-O-methyl-delta 9,11], the inhibition constant (Ki) amounted to 827 nM.

Regarding `CCCCCCC(C)(C)c1cc(O)c2c(c1)OC(C)(C)[C@@H]1CCC(CO)=CC21` (stereo partly specified) [(3-(1,1-Dimethyl-heptyl)-9-hydroxymethyl-6,6-dimethyl-6a,7,8,10a-tetrahydro-6H-benzo[c]chromen-1-ol (HU210)], the affinity, expressed as Ki, was 126 nM.

As for `CC1=C[C@H]2c3c(O)cc(CCCCCF)cc3OC(C)(C)[C@@H]2CC1` [THC, 5'-F], the affinity, expressed as Ki, was 57 nM.

`CCCCCCCCCC(C)(C)c1ccc([C@H]2CCC[C@@H](O)C2)c(O)c1` [Bicyclic analogs IX] displayed a Ki of 163 nM.

Turning to `CCCCCCC(C)(C)c1ccc([C@@H]2C[C@H](O)CC[C@H]2CCCCO)c(O)c1` [Bicyclic analogs XVI], the Ki came out at 1.55 nM.

`CCC(C)(C)c1ccc([C@H]2CCC[C@@H](O)C2)c(O)c1` [Bicyclic analogs II]: the Ki was > 10000 nM.

Turning to `CC(C)(C)c1ccc([C@H]2CCC[C@@H](O)C2)c(O)c1` [Bicyclic analogs I], the inhibition constant Ki was > 10000 nM.

With `CCCCCCC(C)(C)c1ccc([C@@H]2C[C@H](O)CC[C@H]2C)c(O)c1` [Bicyclic analogs XI], the inhibition constant (Ki) is 6.15 nM and 7.7 nM.

In turn, `CC1=C[C@H]2c3c(O)cc(CCCCCI)cc3OC(C)(C)[C@@H]2CC1` [THC, 5'-I] yielded an inhibition constant (Ki) of 7.77 nM.

For `CCCCCc1cc(OC(C)C)c2c(c1)OC(C)(C)[C@@H]1CCC(C)=C[C@@H]21` [THC, O, 2-propano], the inhibition constant Ki was > 10000 nM.

With `CCCCCc1cc(O)c2c(c1)OC(C)(C)C1CCC(C)(O)CC21` (stereo unspecified) [NSC_169742], the Ki was 124 nM and 171 nM.

`C=C1CC[C@@H]2[C@@H](C1)c1c(O)cc(CCC(CC)CCC)cc1OC2(C)C` (stereo partly specified) [THC, 3-(Norpentyl)-3-propyl]: the inhibition constant Ki is 968 nM.
